Experimental data: patent publication US11912660B2, “S6K1 protein kinase inhibitors as cancer therapeutics” (Xavier University of Louisiana, priority 2020, dated 2024)
Read-outs that look alike come from different tables or passages of the source.

Assays:
Assay in all cases: SelectScreen kinase panel screening
Format in all cases: biochemical
RPS6KB1 (p70S6K) = RPS6KB1 (p70S6K) (Homo sapiens (Human), UniProt P23443); settings: for inhibition at 10 µM: RPS6KB1 (p70S6K)
Source text: (§1) The complete list of the kinases given in Table 1 and their details can be found on the ThermoFisher website for Biochemical Kinase assays (thermofisher.com/us/en/home/industrial/pharma-biopharma/drug-discovery-development/target-and-lead-identification-and-validation/kinasebiology.html).
RJ1 was taken as the lead structure for the synthesis of several diamide and monoamide derivatives of 4,6-diaminoisoindolin-1,3-dione.

AKT1 (PKB alpha) = AKT1 (PKB alpha) (Homo sapiens (Human), UniProt P31749)
Source text: as §1

AURKB (Aurora B) = AURKB (Aurora B) (Homo sapiens (Human), UniProt Q96GD4)
Source text: as §1

AURKC (Aurora C) = AURKC (Aurora C) (Homo sapiens (Human), UniProt Q9UQB9)
AURKC (Aurora C), sequence (Q9UQB9 whole entry): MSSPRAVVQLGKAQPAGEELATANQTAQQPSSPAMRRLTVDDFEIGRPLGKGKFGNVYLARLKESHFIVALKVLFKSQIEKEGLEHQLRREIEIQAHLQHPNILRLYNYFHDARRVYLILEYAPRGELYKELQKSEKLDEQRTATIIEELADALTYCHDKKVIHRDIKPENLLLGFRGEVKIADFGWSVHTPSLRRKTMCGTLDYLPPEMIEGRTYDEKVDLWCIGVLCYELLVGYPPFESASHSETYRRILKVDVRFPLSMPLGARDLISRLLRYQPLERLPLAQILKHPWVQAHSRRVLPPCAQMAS
Source text: as §1

BTK = BTK (Homo sapiens (Human), UniProt Q06187)
Source text: as §1

CDC42 BPA (MRCKA) = CDC42 BPA (MRCKA) (Homo sapiens (Human), UniProt Q5VT25)
Source text: as §1

CDC42 BPB (MRCKB) = CDC42 BPB (MRCKB) (Homo sapiens (Human), UniProt Q9Y5S2)
Source text: as §1

CDK2/cyclin A = CDK2/cyclin A (Homo sapiens (Human), UniProt P24941)
Source text: as §1

CDK9/cyclin T1 = CDK9/cyclin T1 (Homo sapiens (Human), UniProt P50750)
CDK9/cyclin T1, sequence (P50750 whole entry): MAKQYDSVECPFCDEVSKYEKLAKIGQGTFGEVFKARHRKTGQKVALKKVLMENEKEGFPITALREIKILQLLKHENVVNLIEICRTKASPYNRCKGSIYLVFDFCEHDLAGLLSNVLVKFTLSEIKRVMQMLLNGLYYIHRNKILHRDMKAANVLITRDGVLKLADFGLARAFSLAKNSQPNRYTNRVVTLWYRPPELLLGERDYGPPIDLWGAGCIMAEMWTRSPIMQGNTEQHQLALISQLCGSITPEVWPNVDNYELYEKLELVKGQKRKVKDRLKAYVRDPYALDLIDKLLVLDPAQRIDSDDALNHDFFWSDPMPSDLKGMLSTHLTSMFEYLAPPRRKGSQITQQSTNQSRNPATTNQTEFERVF
CDK9/cyclin T1, sequence (O60563 whole entry partner): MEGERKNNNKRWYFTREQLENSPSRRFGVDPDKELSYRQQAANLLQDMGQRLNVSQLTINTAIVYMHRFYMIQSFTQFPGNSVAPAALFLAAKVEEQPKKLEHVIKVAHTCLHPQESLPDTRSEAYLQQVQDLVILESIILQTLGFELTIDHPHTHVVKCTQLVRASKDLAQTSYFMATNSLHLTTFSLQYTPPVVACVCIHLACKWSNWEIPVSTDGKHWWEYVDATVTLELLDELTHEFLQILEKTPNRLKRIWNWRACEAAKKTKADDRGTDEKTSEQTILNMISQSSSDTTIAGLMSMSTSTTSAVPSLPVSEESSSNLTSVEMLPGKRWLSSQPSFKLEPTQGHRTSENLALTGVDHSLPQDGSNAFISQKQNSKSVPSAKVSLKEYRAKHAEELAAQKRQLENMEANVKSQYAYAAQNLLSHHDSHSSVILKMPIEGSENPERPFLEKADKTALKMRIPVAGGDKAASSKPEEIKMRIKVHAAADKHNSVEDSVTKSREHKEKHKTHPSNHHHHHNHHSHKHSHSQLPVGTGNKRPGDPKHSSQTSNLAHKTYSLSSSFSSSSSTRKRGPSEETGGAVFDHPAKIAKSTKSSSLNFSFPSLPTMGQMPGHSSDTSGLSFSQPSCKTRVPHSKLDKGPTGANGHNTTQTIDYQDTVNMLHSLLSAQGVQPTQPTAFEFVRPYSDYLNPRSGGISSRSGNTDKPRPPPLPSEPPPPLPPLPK
Source text: as §1

EPHA1 = EPHA1 (Homo sapiens (Human), UniProt P21709)
Source text: as §1

EPHA2 = EPHA2 (Homo sapiens (Human), UniProt P29317)
Source text: as §1

EPHB4 = EPHB4 (Homo sapiens (Human), UniProt P54760)
Source text: as §1

ERBB4 (HER4) = ERBB4 (HER4) (Homo sapiens (Human), UniProt Q15303)
ERBB4 (HER4), sequence (Q15303 26-1308): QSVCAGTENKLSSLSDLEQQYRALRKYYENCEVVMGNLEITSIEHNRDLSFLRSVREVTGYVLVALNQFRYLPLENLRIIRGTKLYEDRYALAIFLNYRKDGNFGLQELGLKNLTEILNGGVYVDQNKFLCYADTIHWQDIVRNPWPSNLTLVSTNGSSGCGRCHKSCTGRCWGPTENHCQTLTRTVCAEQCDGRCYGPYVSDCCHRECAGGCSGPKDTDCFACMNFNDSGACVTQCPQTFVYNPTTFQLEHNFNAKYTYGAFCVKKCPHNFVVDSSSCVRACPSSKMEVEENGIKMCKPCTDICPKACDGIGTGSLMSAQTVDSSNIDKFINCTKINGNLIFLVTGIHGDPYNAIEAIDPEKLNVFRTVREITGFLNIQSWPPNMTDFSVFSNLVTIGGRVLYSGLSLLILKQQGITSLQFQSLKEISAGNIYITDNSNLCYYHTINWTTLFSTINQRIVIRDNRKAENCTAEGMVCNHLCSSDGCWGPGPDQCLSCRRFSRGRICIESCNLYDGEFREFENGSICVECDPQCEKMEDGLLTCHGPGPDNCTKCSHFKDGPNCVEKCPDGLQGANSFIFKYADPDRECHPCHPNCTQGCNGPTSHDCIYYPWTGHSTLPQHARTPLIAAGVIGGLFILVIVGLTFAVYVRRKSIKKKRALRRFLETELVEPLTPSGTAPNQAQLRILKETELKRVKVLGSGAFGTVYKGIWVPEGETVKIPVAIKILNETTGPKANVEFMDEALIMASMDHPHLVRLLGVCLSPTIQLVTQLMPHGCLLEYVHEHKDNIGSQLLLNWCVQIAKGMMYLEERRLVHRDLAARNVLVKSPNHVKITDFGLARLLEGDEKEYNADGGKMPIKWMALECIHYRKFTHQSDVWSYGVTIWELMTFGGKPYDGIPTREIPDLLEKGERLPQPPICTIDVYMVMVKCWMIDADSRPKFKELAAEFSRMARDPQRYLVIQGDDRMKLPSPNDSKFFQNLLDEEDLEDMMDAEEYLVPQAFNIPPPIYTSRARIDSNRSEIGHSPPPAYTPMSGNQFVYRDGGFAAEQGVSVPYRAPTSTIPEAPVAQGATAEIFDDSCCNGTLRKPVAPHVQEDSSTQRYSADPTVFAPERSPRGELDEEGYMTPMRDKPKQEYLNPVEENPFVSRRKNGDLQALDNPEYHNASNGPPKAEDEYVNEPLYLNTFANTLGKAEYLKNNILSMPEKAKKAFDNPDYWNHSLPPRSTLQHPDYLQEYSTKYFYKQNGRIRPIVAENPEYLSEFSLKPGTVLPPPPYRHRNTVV
Source text: as §1

FER = FER (Homo sapiens (Human), UniProt P16591)
Source text: as §1

FYN = FYN (Homo sapiens (Human), UniProt P06241)
Source text: as §1

JAK2 JH1 JH2 V617F = JAK2 JH1 JH2 V617F (Homo sapiens (Human), UniProt O60674, V617F)
Source text: as §1

MAP2K1 (MEK1) = MAP2K1 (MEK1) (Homo sapiens (Human), UniProt Q02750)
Source text: as §1

MAP3K8 (COT) = MAP3K8 (COT) (Homo sapiens (Human), UniProt P41279)
Source text: as §1

MAP4K4 (HGK) = MAP4K4 (HGK) (Homo sapiens (Human), UniProt O95819)
MAP4K4 (HGK), sequence (O95819 whole entry): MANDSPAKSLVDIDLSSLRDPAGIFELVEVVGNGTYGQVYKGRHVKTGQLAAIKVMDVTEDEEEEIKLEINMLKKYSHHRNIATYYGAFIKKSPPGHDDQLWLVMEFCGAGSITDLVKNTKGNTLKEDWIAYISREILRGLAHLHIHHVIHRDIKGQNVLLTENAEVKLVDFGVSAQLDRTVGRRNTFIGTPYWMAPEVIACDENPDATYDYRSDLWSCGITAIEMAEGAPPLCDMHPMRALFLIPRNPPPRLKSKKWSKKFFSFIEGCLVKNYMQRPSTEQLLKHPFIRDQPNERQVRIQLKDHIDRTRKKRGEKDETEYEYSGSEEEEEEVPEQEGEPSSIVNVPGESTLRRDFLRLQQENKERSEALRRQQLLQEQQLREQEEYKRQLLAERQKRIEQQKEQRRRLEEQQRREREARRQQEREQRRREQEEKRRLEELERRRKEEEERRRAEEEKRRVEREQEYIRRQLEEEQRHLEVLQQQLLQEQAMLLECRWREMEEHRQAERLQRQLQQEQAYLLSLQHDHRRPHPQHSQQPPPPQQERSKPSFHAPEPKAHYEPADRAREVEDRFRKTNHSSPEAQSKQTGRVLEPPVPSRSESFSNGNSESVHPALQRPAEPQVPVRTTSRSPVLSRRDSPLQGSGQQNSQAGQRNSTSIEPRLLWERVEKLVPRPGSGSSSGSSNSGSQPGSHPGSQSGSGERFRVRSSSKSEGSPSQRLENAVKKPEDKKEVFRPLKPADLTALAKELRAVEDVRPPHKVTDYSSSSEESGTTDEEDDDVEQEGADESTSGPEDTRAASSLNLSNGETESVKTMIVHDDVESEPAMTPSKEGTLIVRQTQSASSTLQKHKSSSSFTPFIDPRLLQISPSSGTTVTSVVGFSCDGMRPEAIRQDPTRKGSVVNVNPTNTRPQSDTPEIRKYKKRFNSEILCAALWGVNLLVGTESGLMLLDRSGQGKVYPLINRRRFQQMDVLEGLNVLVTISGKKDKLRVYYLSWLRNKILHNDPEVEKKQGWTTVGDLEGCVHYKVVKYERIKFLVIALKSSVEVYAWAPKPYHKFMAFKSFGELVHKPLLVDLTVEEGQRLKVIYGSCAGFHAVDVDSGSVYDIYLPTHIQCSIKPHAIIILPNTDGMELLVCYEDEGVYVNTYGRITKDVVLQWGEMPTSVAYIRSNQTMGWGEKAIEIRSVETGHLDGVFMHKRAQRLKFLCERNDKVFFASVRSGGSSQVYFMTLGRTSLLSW
Source text: as §1

PAK4 = PAK4 (Homo sapiens (Human), UniProt O96013)
Source text: as §1

PDGFRA (PDGFR alpha) = PDGFRA (PDGFR alpha) (Homo sapiens (Human), UniProt P16234)
Source text: as §1

PIM1 = PIM1 (Homo sapiens (Human), UniProt P11309)
Source text: as §1

PLK1 = PLK1 (Homo sapiens (Human), UniProt P53350)
PLK1, sequence (P53350 whole entry): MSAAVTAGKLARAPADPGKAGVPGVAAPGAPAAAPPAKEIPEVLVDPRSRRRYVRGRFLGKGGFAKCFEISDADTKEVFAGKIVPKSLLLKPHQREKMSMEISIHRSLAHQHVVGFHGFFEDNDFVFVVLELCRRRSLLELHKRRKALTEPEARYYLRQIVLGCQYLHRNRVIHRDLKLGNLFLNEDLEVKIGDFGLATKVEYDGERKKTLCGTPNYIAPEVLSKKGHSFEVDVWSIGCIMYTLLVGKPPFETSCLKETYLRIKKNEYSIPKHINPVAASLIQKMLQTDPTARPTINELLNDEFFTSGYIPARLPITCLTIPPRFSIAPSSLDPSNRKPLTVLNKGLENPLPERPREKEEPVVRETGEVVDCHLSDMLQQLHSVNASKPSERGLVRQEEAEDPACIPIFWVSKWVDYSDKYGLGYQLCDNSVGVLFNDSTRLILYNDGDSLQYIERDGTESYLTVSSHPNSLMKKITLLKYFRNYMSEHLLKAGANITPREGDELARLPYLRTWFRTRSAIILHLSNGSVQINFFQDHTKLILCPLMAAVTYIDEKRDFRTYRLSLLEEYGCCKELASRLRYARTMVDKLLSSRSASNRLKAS
Source text: as §1

PRKCB2 (PKC beta II) = PRKCB2 (PKC beta II) (Homo sapiens (Human), UniProt P05771)
Source text: as §1

PTK2B (FAK2) = PTK2B (FAK2) (Homo sapiens (Human), UniProt Q14289)
Source text: as §1

SPHK1 = SPHK1 (Homo sapiens (Human), UniProt Q9NYA1); settings: read-out: % Inhibition class
Source text: as §1

TBK1 = TBK1 (Homo sapiens (Human), UniProt Q9UHD2)
Source text: as §1

TYRO3 (RSE) = TYRO3 (RSE) (Homo sapiens (Human), UniProt Q06418)
Source text: as §1

RPS6KB1 (p70S6K), sequence (P23443 whole entry): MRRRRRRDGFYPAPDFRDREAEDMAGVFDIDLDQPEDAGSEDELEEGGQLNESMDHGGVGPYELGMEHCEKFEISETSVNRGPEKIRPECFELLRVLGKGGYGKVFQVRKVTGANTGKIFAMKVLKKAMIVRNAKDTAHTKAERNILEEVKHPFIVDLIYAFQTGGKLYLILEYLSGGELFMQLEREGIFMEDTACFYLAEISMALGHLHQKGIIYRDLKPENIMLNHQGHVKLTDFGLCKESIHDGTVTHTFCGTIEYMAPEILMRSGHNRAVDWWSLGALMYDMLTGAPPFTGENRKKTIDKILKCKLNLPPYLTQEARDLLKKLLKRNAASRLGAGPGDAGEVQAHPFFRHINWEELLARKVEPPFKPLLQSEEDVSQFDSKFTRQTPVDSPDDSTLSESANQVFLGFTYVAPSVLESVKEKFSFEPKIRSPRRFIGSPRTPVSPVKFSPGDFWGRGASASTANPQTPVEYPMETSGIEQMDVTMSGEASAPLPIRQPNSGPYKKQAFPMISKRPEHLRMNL

Nc1cc(N)c2c(c1)C(=O)NC2=O [RJ1, 4,6-diaminoisoindoline-1,3-dione]
inhibition at 10 µM (RPS6KB1 (p70S6K); read-out: % Inhibition): 80% | inhibition at 10 µM (RPS6KB1 (p70S6K); read-out: % Inhibition class): ≥ 80% | selectivity against a panel of 120 disease relevant kinases (RPS6KB1 (p70S6K); SelectScreen panel): RPS6K1-selective inhibitor | inhibition at 10 µM (AKT1 (PKB alpha); read-out: % Inhibition): 11% | inhibition at 10 µM (AKT1 (PKB alpha); read-out: % Inhibition class): < 40% | inhibition at 10 µM (AURKB (Aurora B); read-out: % Inhibition): 63% | inhibition at 10 µM (AURKB (Aurora B); read-out: % Inhibition class): 40 to 80% | inhibition at 10 µM (AURKC (Aurora C); read-out: % Inhibition): 40% | inhibition at 10 µM (AURKC (Aurora C); read-out: % Inhibition class): < 40% | inhibition at 10 µM (BTK; read-out: % Inhibition): 43% | inhibition at 10 µM (BTK; read-out: % Inhibition class): 40 to 80% | inhibition at 10 µM (CDC42 BPA (MRCKA); read-out: % Inhibition): 0% | inhibition at 10 µM (CDC42 BPA (MRCKA); read-out: % Inhibition class): < 40% | inhibition at 10 µM (CDC42 BPB (MRCKB); read-out: % Inhibition): 0% | inhibition at 10 µM (CDC42 BPB (MRCKB); read-out: % Inhibition class): < 40% | inhibition at 10 µM (CDK2/cyclin A; read-out: % Inhibition): 9% | inhibition at 10 µM (CDK2/cyclin A; read-out: % Inhibition class): < 40% | % Inhibition (CDK9/cyclin T1; 10 μM): 16% | inhibition at 10 µM (CDK9/cyclin T1; read-out: % Inhibition): 10% | inhibition at 10 µM (CDK9/cyclin T1; read-out: % Inhibition class): < 40% | inhibition at 10 µM (EPHA1; read-out: % Inhibition): 15% | inhibition at 10 µM (EPHA1; read-out: % Inhibition class): < 40% | inhibition at 10 µM (EPHA2; read-out: % Inhibition): 16% | inhibition at 10 µM (EPHA2; read-out: % Inhibition class): < 40% | inhibition at 10 µM (EPHB4; read-out: % Inhibition): 9% | inhibition at 10 µM (EPHB4; read-out: % Inhibition class): < 40% | inhibition at 10 µM (ERBB4 (HER4); read-out: % Inhibition): 25% | inhibition at 10 µM (ERBB4 (HER4); read-out: % Inhibition class): < 40% | inhibition at 10 µM (FER; read-out: % Inhibition): 23% | inhibition at 10 µM (FER; read-out: % Inhibition class): < 40% | inhibition at 10 µM (FYN; read-out: % Inhibition): 17% | inhibition at 10 µM (FYN; read-out: % Inhibition class): < 40% | inhibition at 10 µM (JAK2 JH1 JH2 V617F; read-out: % Inhibition): 6% | inhibition at 10 µM (JAK2 JH1 JH2 V617F; read-out: % Inhibition class): < 40% | inhibition at 10 µM (MAP2K1 (MEK1); read-out: % Inhibition): 13% | inhibition at 10 µM (MAP2K1 (MEK1); read-out: % Inhibition class): < 40% | inhibition at 10 µM (MAP3K8 (COT); read-out: % Inhibition): 29% | inhibition at 10 µM (MAP3K8 (COT); read-out: % Inhibition class): < 40% | inhibition at 10 µM (MAP4K4 (HGK); read-out: % Inhibition): 66% | inhibition at 10 µM (MAP4K4 (HGK); read-out: % Inhibition class): 40 to 80% | inhibition at 10 µM (PAK4; read-out: % Inhibition): 29% | inhibition at 10 µM (PAK4; read-out: % Inhibition class): < 40% | inhibition at 10 µM (PDGFRA (PDGFR alpha); read-out: % Inhibition): 13% | inhibition at 10 µM (PDGFRA (PDGFR alpha); read-out: % Inhibition class): < 40% | inhibition at 10 µM (PIM1; read-out: % Inhibition): 35% | inhibition at 10 µM (PIM1; read-out: % Inhibition class): < 40% | inhibition at 10 µM (PLK1; read-out: % Inhibition): 9% | inhibition at 10 µM (PLK1; read-out: % Inhibition class): < 40% | inhibition at 10 µM (PRKCB2 (PKC beta II); read-out: % Inhibition): 23% | inhibition at 10 µM (PRKCB2 (PKC beta II); read-out: % Inhibition class): < 40% | inhibition at 10 µM (PTK2B (FAK2); read-out: % Inhibition): 18% | inhibition at 10 µM (PTK2B (FAK2); read-out: % Inhibition class): < 40% | inhibition at 10 µM (SPHK1): < 40% | inhibition at 10 µM (TBK1; read-out: % Inhibition): 18% | inhibition at 10 µM (TBK1; read-out: % Inhibition class): < 40% | inhibition at 10 µM (TYRO3 (RSE); read-out: % Inhibition): 25% | inhibition at 10 µM (TYRO3 (RSE); read-out: % Inhibition class): < 40%
